Assays:
[1] = tested on: breast cancer MCF-7 cells; test: Cell viability (MTT) assay, MCF-7; format: cell-based, human; settings: for IC50: 24 h incubation, n = 9, MTT, read-out: IC50 ± SD, MCF-7; for Selectivity index (SI) against MCF-7: IC50 against non-cancerous ARPE-19 cells divided by IC50 against MCF-7
Protocol: (§1) The potential therapeutic activity of the copper pyrithione complexes was determined by screening complexes for 24 hours against human cancer cell lines MCF-7 (breast) and MIA PaCa-2 (pancreatic), alongside a non-cancerous epithelial cell line ARPE-19 (retinal). As controls, cisplatin and CuCl2·2H2O were also included in the screen (Table 2). […]
(§2) All cell lines were maintained as monolayers in either T75 or T175 flasks in complete high glucose DMEM media (supplemented with 10% Fetal Bovine Serum, 1% sodium pyruvate, 1% L-glutamine, 1% penstrep). All cell lines were seeded at 4000 cells/well in a clear-bottom 96-well plate and incubated for 24 h for cells to adhere. The cells were treated with varying concentrations of each complex and left to incubate for a further 24 h. MTT reagent (20 mL, 5 mg/mL) was added to each well, and the plates were incubated for 3 h. The media was removed by aspiration, followed by the addition of DMSO (150 mL) to solubilise the formazan. The absorbance was read using a Clariostar plate reader at 540 nm. Results were plotted on a logarithmic scale, and the half maximal inhibitory concentration (IC 50) was determined from a triplicate of triplicate repeats and reported as an IC 50 ± Standard Deviation (SD). […]

[2] = tested on: pancreatic cancer MIA PaCa-2 cells; test: Cell viability (MTT) assay, MIA PaCa-2; format: cell-based, human; settings: for IC50: 24 h incubation, n = 9, MTT, read-out: IC50 ± SD, MIA PaCa-2
Protocol: as §1, §2

[3] = tested on: non-cancerous retinal epithelial ARPE-19 cells; test: Cell viability (MTT) assay, ARPE-19; format: cell-based; settings: 24 h incubation, n = 9, MTT; read-out: IC50 ± SD, ARPE-19
Protocol: as §1, §2

[4] = Thermodynamic stability constant, Benesi-Hildebrand UV-vis titration; format: physicochemical; settings: Benesi-Hildebrand method, MeCN:H2O 1:1, absorbance at 320 nm
Protocol: (§3) Where [M] is concentration of copper, [L] is concentration of the activated ligand, b is the pathlength, which was kept at 1 cm, ɛ is molar extinction coefficient of the complex, A is absorbance and K = binding constant.
All cell lines were maintained as monolayers in either T75 or T175 flasks in complete high glucose DMEM media (supplemented with 10% Fetal Bovine Serum, 1% sodium pyruvate, 1% L-glutamine, 1% penstrep). All cell lines were seeded at 4000 cells/well in a clear-bottom 96-well plate and incubated for 24 h for cells to adhere. The cells were treated with varying concentrations of each complex and left to incubate for a further 24 h. MTT reagent ([…], 5 mg/mL) was added to each well, and the plates were incubated for 3 h. The media was removed by aspiration, followed by the addition of DMSO ([…]) to solubilise the formazan. The absorbance was read using a Clariostar plate reader at 540 nm. Results were plotted on a logarithmic scale, and the half maximal inhibitory concentration (IC 50) was determined from a triplicate of triplicate repeats and reported as an IC 50 ± Standard Deviation (SD).

[5] = tested on: MCF-7 cells; test: Reactive oxygen species study, H2DCFDA stain (Method 1); format: cell-based, human; settings: complex at 10 μM for 1 h, H2DCFDA 20 μM for 30 min
From the text: To understand a potential mechanism of action, we determined production of reactive oxygen species (ROS) using fluorescent microscopy assays. ROS production is a common mode of therapeutic activity of copper complexes.[43] […] In the presence of ROS, H2DCFDA converts to a fluorescent dye that can be observed using microscopy. […] By contrast, control cells with no pyrithione complex added show little fluorescence (Fig. 6A). […] (Fig. 6B), [Cu(6-Me-PT)2] (Fig. 6C), and [Cu(3-OMe-PT)2] […] (Fig. 6D) was weaker. This variation correlates well with the cytotoxicity data in Table 2, with the methyl and methoxy complexes also showing the highest activity.
Next, cells were dosed at two concentrations of pyrithione complex to determine whether production of ROS is dose-dependent. Results for [Cu(3-OMe-PT)2] are shown at 1 μM (Fig. 6E) and 10 μM (Fig. 6F) after 1 hour; results for other complexes are shown in the SI (Fig. S11 and 12). In all cases, the fluorescence intensity increases in assays with 10 μM complex, compared to assays with 1 μM complex, supporting a mode of action where increasing complex concentration leads to increased ROS generation and higher cytotoxicity. […]
absorbance and K = binding constant. […]
The cells were treated with varying
Results were plotted on a
Reactive oxygen species study:
Method 1: 2′,7′-dichlorodihydrofluorescein diacetate (H 2DCFDA) stain: […]
untreated sample (negative control). After this time, 2′,7′-dichlorodihydrofluorescein diacetate […]
Stock solutions of the compounds (5 mM) were made

[6] = tested on: MCF-7 cells; settings: dosed, fixed
Protocol: as §3
as §2, with “MTT reagent (20 mL, 5 mg/mL) was added to each well, and the plates were incubated for 3 h. The media was removed by aspiration, followed by the addition of DMSO (150 mL) to solubilise the formazan.” left out
MCF-7 cells were seeded into a black 96 well optical bottom plate at 8000 cells/well in phenol-red free complete DMEM medium (100 μl), and incubated at 37 °C and 5% CO 2 for 24 h. […] Cells were gently washed with PBS (2 x 100 µl), and 100 µl of PBS was added to each well before reading.
Fluorescence images were obtained using Zeiss Axio Observer 7 inverted microscope at excitation at 488 nm and emission at 509 nm, and analysed using ZEN 3.8 software. […]

[7] = tested on: MCF-7 (breast) cancer cell line; settings: cited from earlier work
[8] = tested on: HepG2 (liver) cancer cell line; settings: cited from earlier work
[9] = tested on: U266 (myeloma) cancer cell line; settings: cited from earlier work
[10] = tested on: NCI-H929 (myeloma) cancer cell line; settings: cited from earlier work
[11] = Solubility by observation; settings: aqueous and organic solvents, qualitative
[12] = Lipophilicity, octanol:water shake-flask method with ICP-OES copper quantification; settings: copper by ICP-OES, triplicate
Protocol: Due to the low aqueous solubility of [Cu(PT)2], inductively coupled plasma-optical emission spectroscopy (ICP-OES) was used to quantify copper in the octanol and water layers (see SI).
General procedure for logP measurement:
Stock solutions (10 mM) of the tested copper complexes were prepared in DMSO solvent.
Water and octanol were saturated with the other solvent to match the final shake-flask
conditions. Next, log P values were determined using the shake-flask method. For each
complex, 60 µl of the stock solution was added to a mixture of 3 ml water and 3 ml n-octanol.
The solution was shaken by hand and vortexed. The layers were separated and analysed by
inductively coupled plasma optical emission spectroscopy (ICP-OES). For the octanol layer,
100 µl was collected in a vial and the solvent was evaporated under high vacuum. Next, the
residue was dissolved in 100 µl methanol and further diluted with 10 ml of 5% aqueous nitric
acid (HNO 3) solution for digestion. For the water layer, 1 ml of solution was diluted with 9 ml
of 5% aqueous HNO 3 solution. After analysis through ICP-OES technique, the amount of
copper in each sample was determined in ppm. To remove background copper, the exact
conditions were repeated in the absence of copper pyrithione complexes and the values were
subtracted from the measured values. The partition coefficient (P) and respective logP values

SMILES	IC50 [1]	IC50 [2]	Selectivity index (SI) against MIA PaCa-2 ([2]; IC50 against non-cancerous ARPE-19 cells divided by IC50 against MIA PaCa-2)	IC50 [3]	Selectivity index (SI) against MCF-7 [1]	Log(K/(M^−2)) [4]	ROS production, H2DCFDA fluorescence [5]	ROS levels compared to menadione, CellROX stain [6]	IC50 against MCF-7 [7]	IC50 against HepG2 [8]	IC50 against U266 [9]	IC50 against NCI-H929 [10]	Solubility (by observation) [11]	Log P [12]
N.N.[Cl][Pt][Cl] [Cisplatin, reference compound]	40 ± 1 µM	> 100 µM	< 0.13	13 ± 0.1 µM										
[Cl][Cu][Cl] [CuCl2·2H2O, reference compound]	> 100 µM	> 100 µM		83 ± 2 µM										
Cc1cccn([O-])c1=S.Cc1cccn([O-])c1=S.[Cu+2] [[Cu(3-Me-PT)2]]	0.347 ± 0.006 µM	7.1 ± 0.2 µM		2.2 ± 0.1 µM	6.34									
COc1ccc[n+]([O-])c1[S][Cu][S]c1c(OC)ccc[n+]1[O-] [[Cu(3-OMe-PT)2]]	0.22 ± 0.01 µM	2.7 ± 0.1 µM		0.87 ± 0.04 µM	3.95	7.560 ± 0.002	brightest fluorescence							
[Cu+2].[O-]n1ccc(C(F)(F)F)cc1=S.[O-]n1ccc(C(F)(F)F)cc1=S [[Cu(4-CF3-PT)2]]	8.9 ± 0.3 µM	21.6 ± 0.4 µM		17.3 ± 0.4 µM										
Cc1cc[n+]([O-])c([S][Cu][S]c2cc(C)cc[n+]2[O-])c1 [[Cu(4-Me-PT)2]]	0.69 ± 0.02 µM	8.5 ± 0.3 µM		1.8 ± 0.1 µM										
Cc1cccc([S][Cu][S]c2cccc(C)[n+]2[O-])[n+]1[O-] [[Cu(6-Me-PT)2]]	0.57 ± 0.01 µM	2.1 ± 0.1 µM		0.57 ± 0.03 µM		7.498 ± 0.005	brightest fluorescence							
On1ccccc1=S.On1ccccc1=S.[Cu] [[Cu(PT)2], copper pyrithione]	0.27 ± 0.01 µM	2.22 ± 0.08 µM		0.41 ± 0.05 µM		7.528 ± 0.004	brightest fluorescence	lower levels of ROS	submicromolar	submicromolar	submicromolar	submicromolar	low solubility	2.34

— paper PMC12519996, “Copper pyrithione complexes with endoplasmic reticulum localisation showing anticancer activity via ROS generation” (Chemical Science, 2025)
